Experimental data reported in patent US20240383856A1 (Zedira GmbH, priority 2021, published 2024).

Columns and labels:
[1] = molecular target: T1, recombinant human transglutaminase 2 (Homo sapiens, UniProt P21980); assay: Transglutaminase assay (DCC-assay): incorporation of dansylcadaverine into dimethylcasein; format: biochemical; details: recombinant human TG2 10 nM; dansylcadaverine incorporation into dimethylcasein; read-out: IC50 TG2
T1 construct: purchased Zedira T022
T1 sequence (P21980 1-687): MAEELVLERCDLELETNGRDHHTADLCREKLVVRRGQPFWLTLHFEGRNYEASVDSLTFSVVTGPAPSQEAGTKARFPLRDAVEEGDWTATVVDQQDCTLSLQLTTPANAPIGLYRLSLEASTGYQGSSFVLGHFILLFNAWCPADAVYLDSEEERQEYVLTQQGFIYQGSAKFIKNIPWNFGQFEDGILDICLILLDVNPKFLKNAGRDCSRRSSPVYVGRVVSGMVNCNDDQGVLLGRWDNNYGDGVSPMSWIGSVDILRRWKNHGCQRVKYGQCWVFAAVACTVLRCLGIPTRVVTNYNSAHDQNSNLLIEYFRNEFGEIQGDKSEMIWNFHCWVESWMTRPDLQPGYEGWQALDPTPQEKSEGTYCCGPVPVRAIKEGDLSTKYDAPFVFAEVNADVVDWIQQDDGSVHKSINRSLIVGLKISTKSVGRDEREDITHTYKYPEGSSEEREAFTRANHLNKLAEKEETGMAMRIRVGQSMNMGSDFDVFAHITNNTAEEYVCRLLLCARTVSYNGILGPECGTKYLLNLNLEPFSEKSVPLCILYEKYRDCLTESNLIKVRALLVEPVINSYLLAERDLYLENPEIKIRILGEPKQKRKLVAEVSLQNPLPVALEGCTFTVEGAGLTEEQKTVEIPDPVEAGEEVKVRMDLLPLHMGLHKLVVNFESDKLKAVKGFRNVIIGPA
Outline: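 IC50 is the inhibitor level that blocks 50% of initial activity. Activity is the fluorescence slope (λex 330, λem 500 nm) between 20 and 30 min of a 37 °C run, relative to a 2% DMSO control. The enzyme is recombinant human tissue transglutaminase, 10 nM final, tested against a 1:2 inhibitor dilution series in a pH 8.0 mix with 10 mM CaCl2, 10 mM glutathione, 16.7 µM dansylcadaverine and 4 µM N,N-dimethylcasein.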

[2] = logD by shake flask method (octanol / PBS pH 7.4, HPLC); format: physicochemical; details: octanol / PBS pH 7.4, shake flask
Outline: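 LogD obtained by HPLC measurement of how the compound distributes between PBS (pH 7.4) and octanol in a shake-flask experiment.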

[3] = Caco-2 permeability assay (CacoReady kit); format: in vitro ADME; details: human, Caco-2, Caco-2 barrier, CacoReady kit; above 1×10^−6 cm/s classified as permeable
Outline: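 Compounds are tested on pre-formed Caco-2 barriers supplied as a ready-to-use kit, following the kit protocol, and the Papp value is derived to estimate intestinal absorption.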

Row | SMILES | IC50 [1] [µM] | logD [2] | Papp [3] [nm/s]
1 | CNC(=O)C(=O)CC[C@H](NC(=O)c1oc2ccccc2c1C)C(=O)Nc1cccn(CC(=O)N[C@H]2C[C@H]3CC[C@@]2(C)C3(C)C)c1=O [II-92, (S)-N1-methyl-5-(3-methylbenzofuran-2-carboxamido)-2-oxo-N6-(2-oxo-1-(2-oxo-2-((1S,2S,4R)-1,7,7-trimethylbicyclo[2.2.1]heptan-2-ylamino)ethyl)-1,2-dihydropyridin-3-yl)hexanediamide] | 0.04 to 0.4 | 3 to 5 | 10 to 100
2 | CNC(=O)C(=O)CC[C@H](NC(=O)c1oc2ccccc2c1C)C(=O)Nc1cccn(CC(=O)N[C@@H]2C[C@H]3CC[C@@H]2C3)c1=O [II-94, (S)-N1-(1-(2-((1R,2R,4S)-bicyclo[2.2.1]heptan-2-ylamino)-2-oxoethyl)-2-oxo-1,2-dihydropyridin-3-yl)-N6-methyl-2-(3-methylbenzofuran-2-carboxamido)-5-oxohexanediamide] | < 0.04 | 1 to 3 | 10 to 100
3 | CNC(=O)C(=O)CC[C@H](NC(=O)c1oc2ccccc2c1C)C(=O)Nc1cccn(CC(=O)NC23CCC(CC2)C3)c1=O [II-95, (S)-N1-(1-(2-(bicyclo[2.2.1]heptan-1-ylamino)-2-oxoethyl)-2-oxo-1,2-dihydropyridin-3-yl)-N6-methyl-2-(3-methylbenzofuran-2-carboxamido)-5-oxohexanediamide] | 0.04 to 0.4 | 1 to 3 | 10 to 100
4 | CNC(=O)C(=O)CC[C@H](NC(=O)c1oc2ccccc2c1C)C(=O)Nc1cccn(CC(=O)NC2C3CCC2CC3)c1=O (stereo partly drawn) [II-96, (S)-N1-(1-(2-(bicyclo[2.2.1]heptan-7-ylamino)-2-oxoethyl)-2-oxo-1,2-dihydropyridin-3-yl)-N6-methyl-2-(3-methylbenzofuran-2-carboxamido)-5-oxohexanediamide] | 0.04 to 0.4 | 1 to 3 | 10 to 100
5 | CNC(=O)C(=O)CC[C@H](NC(=O)c1oc2ccccc2c1C)C(=O)Nc1cccn(CC(=O)NC2CC3C=CC2C3)c1=O (stereo partly drawn) [II-97, (S)-N1-(1-(2-(bicyclo[2.2.1]hept-5-en-2-ylamino)-2-oxoethyl)-2-oxo-1,2-dihydropyridin-3-yl)-N6-methyl-2-(3-methylbenzofuran-2-carboxamido)-5-oxohexanediamide] | 0.04 to 0.4 | 1 to 3 | 10 to 100
6 | CNC(=O)C(=O)CC[C@H](NC(=O)c1oc2ccccc2c1C)C(=O)Nc1cccn(CC(=O)NC2CC3CCC2CC3)c1=O (stereo partly drawn) [II-98, (2S)-N1-(1-(2-(bicyclo[2.2.2]octan-2-ylamino)-2-oxoethyl)-2-oxo-1,2-dihydropyridin-3-yl)-N6-methyl-2-(3-methylbenzofuran-2-carboxamido)-5-oxohexanediamide] | 0.04 to 0.4 | 1 to 3 | 10 to 100
7 | CNC(=O)C(=O)CC[C@H](NC(=O)c1oc2ccccc2c1C)C(=O)Nc1cccn(CC(=O)N[C@@H]2C[C@H]3CC[C@]2(C)C3(C)C)c1=O [II-99, (S)-N1-methyl-5-(3-methylbenzofuran-2-carboxamido)-2-oxo-N6-(2-oxo-1-(2-oxo-2-((1R,2R,4R)-1,7,7-trimethylbicyclo[2.2.1]heptan-2-ylamino)ethyl)-1,2-dihydropyridin-3-yl)hexanediamide] | 0.04 to 0.4 | 3 to 5 | 10 to 100
8 | CNC(=O)C(=O)CC[C@H](NC(=O)c1oc2ccccc2c1C)C(=O)Nc1cccn(CC(=O)N[C@@H]2C[C@@H]3C[C@H]([C@H]2C)C3(C)C)c1=O [II-100, (S)-N1-methyl-5-(3-methylbenzofuran-2-carboxamido)-2-oxo-N6-(2-oxo-1-(2-oxo-2-((1R,2R,3R,5S)-2,6,6-trimethylbicyclo[3.1.1]heptan-3-ylamino)ethyl)-1,2-dihydropyridin-3-yl)hexanediamide] | 0.04 to 0.4 | 3 to 5 | 10 to 100
9 | CNC(=O)C(=O)CC[C@H](NC(=O)c1oc2ccccc2c1C)C(=O)Nc1cccn(CC(=O)N[C@H]2C[C@H]3C[C@@H]([C@@H]2C)C3(C)C)c1=O [II-101, (S)-N1-methyl-5-(3-methylbenzofuran-2-carboxamido)-2-oxo-N6-(2-oxo-1-(2-oxo-2-((1S,2S,3S,5R)-2,6,6-trimethylbicyclo[3.1.1]heptan-3-ylamino)ethyl)-1,2-dihydropyridin-3-yl)hexanediamide] | 0.04 to 0.4 | 3 to 5 | 10 to 100
10 | CNC(=O)C(=O)CC[C@H](NC(=O)c1oc2ccccc2c1C)C(=O)Nc1cccn(CC(=O)NC23CCCC4CC(CCC42)C3)c1=O (stereo partly drawn) [II-103, (S)-N1-(1-(2-(4-homoisotwistane-3-amino)-2-oxoethyl)-2-oxo-1,2-dihydropyridin-3-yl)-N6-methyl-2-(3-methylbenzofuran-2-carboxamido)-5-oxohexanediamide] | 0.04 to 0.4 | 1 to 3 | 10 to 100
11 | CNC(=O)C(=O)CC[C@H](NC(=O)c1oc2ccccc2c1C)C(=O)Nc1cccn(CC23CC4CC(CC(C4)C2)C3)c1=O [II-107, (S)-N1-(1-(1-adamantylmethyl)-2-oxo-1,2-dihydropyridin-3-yl)-N6-methyl-2-(3-methylbenzofuran-2-carboxamido)-5-oxohexanediamide] | 0.04 to 0.4 | 3 to 5 | 10 to 100
12 | CNC(=O)C(=O)CC[C@H](NC(=O)c1oc2ccccc2c1C)C(=O)Nc1cccn(CC23CC4CC(CC(O)(C4)C2)C3)c1=O [II-108, (2S)-N1-(1-((3-hydroxy-1-adamantyl)methyl)-2-oxo-1,2-dihydropyridin-3-yl)-N6-methyl-2-(3-methylbenzofuran-2-carboxamido)-5-oxohexanediamide] | 0.04 to 0.4 | 1 to 3 | < 10
13 | CNC(=O)C(=O)CC[C@H](NC(=O)c1oc2ccccc2c1C)C(=O)Nc1cccn(CC23CC4CC(CC(Br)(C4)C2)C3)c1=O [II-109, (2S)-N1-(1-((3-bromo-1-adamantyl)methyl)-2-oxo-1,2-dihydropyridin-3-yl)-N6-methyl-2-(3-methylbenzofuran-2-carboxamido)-5-oxohexanediamide] | 0.04 to 0.4 | 3 to 5 | 10 to 100
14 | CNC(=O)C(=O)CC[C@H](NC(=O)c1oc2ccccc2c1C)C(=O)Nc1cccn(CC2C3CC4CC(C3)CC2C4)c1=O (stereo partly drawn) [II-110, (S)-N1-(1-(2-adamantylmethyl)-2-oxo-1,2-dihydropyridin-3-yl)-N6-methyl-2-(3-methylbenzofuran-2-carboxamido)-5-oxohexanediamide] | 0.04 to 0.4 | 3 to 5 | 10 to 100
15 | CNC(=O)C(=O)CC[C@H](NC(=O)c1cccnc1)C(=O)Nc1cccn(CC(=O)NC2C3CC4CC(C3)CC2C4)c1=O (stereo partly drawn) [II-111, (S)-N1-(1-(2-(2-adamantylamino)-2-oxoethyl)-2-oxo-1,2-dihydropyridin-3-yl)-N6-methyl-2-(nicotinamido)-5-oxohexanediamide] | < 0.04 | 1 to 3 | < 10
16 | CNC(=O)C(=O)CC[C@H](NC(=O)c1ccncc1)C(=O)Nc1cccn(CC(=O)NC2C3CC4CC(C3)CC2C4)c1=O (stereo partly drawn) [II-112, (S)-2-(isonicotinamido)-N1-(1-(2-(2-adamantylamino)-2-oxoethyl)-2-oxo-1,2-dihydropyridin-3-yl)-N6-methyl-5-oxohexanediamide] | < 0.04 | 1 to 3 | < 10
17 | CNC(=O)C(=O)CC[C@H](NC(=O)c1ccnnc1)C(=O)Nc1cccn(CC(=O)NC2C3CC4CC(C3)CC2C4)c1=O (stereo partly drawn) [II-113, (S)-N1-(1-(2-(2-adamantylamino)-2-oxoethyl)-2-oxo-1,2-dihydropyridin-3-yl)-N6-methyl-5-oxo-2-(pyridazine-4-carboxamido)hexanediamide] | 0.04 to 0.4 | < 1 | < 10
18 | CNC(=O)C(=O)CC[C@H](NC(=O)c1cccnn1)C(=O)Nc1cccn(CC(=O)NC2C3CC4CC(C3)CC2C4)c1=O (stereo partly drawn) [II-114, (S)-N1-(1-(2-(2-adamantylamino)-2-oxoethyl)-2-oxo-1,2-dihydropyridin-3-yl)-N6-methyl-5-oxo-2-(pyridazine-3-carboxamido)hexanediamide] | 0.04 to 0.4 | < 1 | < 10
19 | Cc1c(C(=O)N[C@@H](CCC(=O)C(=O)NC2CC2)C(=O)Nc2cccn(CC(=O)NC3C4CC5CC(C4)CC3C5)c2=O)oc2ccccc12 (stereo partly drawn) [II-115, (S)-N1-cyclopropyl-N6-(1-(2-(2-adamantylamino)-2-oxoethyl)-2-oxo-1,2-dihydropyridin-3-yl)-5-(3-methylbenzofuran-2-carboxamido)-2-oxohexanediamide] | 0.04 to 0.4 | 3 to 5 | 10 to 100
